Columns and labels:
hCB1 [1] = target: T1, hCB1 (Homo sapiens, UniProt P21554); assay: Antibody-capture SPA GTP-γ-35S binding, antagonist/inverse agonist mode, human CB1 (CHO membranes); assay type: biochemical; conditions: Human CB1 (CHO cells) membranes; vs saturating methanandamide; mean ± SEM; read-out: Inverse Agonist Potency (Kb)
Procedure: Antibody-Capture SPA GTP-γ-^35S Binding
In cell membranes expressing human or rat CB1 or CB2 receptor, test (3R,5R)-3-[1-methyl-1-(6-trifluoromethyl-pyridin-3-yl)-ethylamino]-1-(4-trifluoromethyl-phenyl)-5-(3-trifluoromethoxy-phenyl)-pyrrolidin-2-one 4-methylbenzenesulfonate (referred to as “Example 2”) for its antagonist/inverse agonist functional GTP-binding. In a 96 well format using a modified antibody capture technique (DeLapp et al., 1999), measure GTP-γ^35S binding. Briefly incubate for 30 minutes at room temperature the GTP-binding assay buffer (20 mM Hepes, 100 mM NaCl, 5 mM MgCl2, pH 7.4), the CHO or Sf9 cell membranes expressing CB1 or CB2, (Applied Cell Sciences, Gaithersburg, Md.; PerkinElmer Life Sciences, Boston, Mass.; prepare membranes as previously described (DeLapp et al., 1999)), Example 2 and the 500 pM GTP-γ-^35S (PerkinElmer Life Sciences, Boston, Mass.). Perform antagonist dose responses in the presence of a saturating dose of a full agonist (methanandamide). […]
To analyze data, subtract background from all wells. […] Determine Kb values using a modification of the Cheng-Prusoff relationship: Kb=IC50/(1+[agonist]/EC50) where IC50 is determined from a four parameter fit of displacement curves, [agonist]=EC50 of full agonist, and EC50 is determined from a four parameter fit of a full agonist concentration response curve (Cheng and Prusoff 1973). […]

human CB2 receptor = target: T2, human CB2 receptor (Homo sapiens, UniProt P34972); assay: Antibody-capture SPA GTP-γ-35S binding, antagonist/inverse agonist mode, human CB2 (Sf9 membranes); assay type: biochemical; conditions: Human CB2 (Sf9 cells) membranes, Table 1
T2 construct: purchased Applied Cell Sciences, Gaithersburg, Md; PerkinElmer Life Sciences, Boston, Mass; host or cells: Sf9 insect cells (recombinant expression), membranes
T2 sequence (P34972 whole entry): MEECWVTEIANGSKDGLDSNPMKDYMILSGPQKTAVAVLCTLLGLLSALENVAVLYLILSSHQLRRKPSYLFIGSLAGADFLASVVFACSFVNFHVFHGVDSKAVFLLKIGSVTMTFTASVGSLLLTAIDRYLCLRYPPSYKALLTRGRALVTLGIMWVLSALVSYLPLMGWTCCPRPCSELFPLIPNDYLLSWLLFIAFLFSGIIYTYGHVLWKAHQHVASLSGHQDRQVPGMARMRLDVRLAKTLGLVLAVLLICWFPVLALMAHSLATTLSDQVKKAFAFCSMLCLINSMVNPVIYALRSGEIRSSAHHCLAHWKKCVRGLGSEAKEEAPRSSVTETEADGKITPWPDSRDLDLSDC

Male Sprague Dawley rats = assay: cFos activation in rat brain, alone and with clozapine; assay type: in vivo
Source text: Characterize Example 2 for its ability to activate gene expression and neurochemical efflux in cortical and subcortical regions and to interact with the prototypical atypical antipsychotic agent clozapine.
Methods: House Male Sprague Dawley rats (155-175 g) for 1 week prior to experimentation. Prepare Example 2 in a vehicle suspension of 1% Sodium carboxymethyl cellulose, 0.5% Sodium lauryl sulfate, 0.05% Antifoam, 0.085% Povidone and administer, to rats (e.g., male Sprague Dawley rats, 155-175 g) p.o. (a dose of 1 or 10 mg/kg). Control rats receive vehicle. Administer clozapine (Sigma) 1 hour later at a concentration of 8 mg/mL in a vehicle solution of 0.4% lactic acid at a dose of 8 mg/kg s.c. Sacrifice animals (n=7-8 per group) by decapitation 2 hours after administration of clozapine or vehicle for clozapine. Remove rapidly whole brains and immediately immerse in isopentane (2-methyl butane) over dry ice. Cut coronal sections through the prefrontal cortex (PFC), nucleus accumbens (NAc) and dorsolateral striatum (DL-Str) at 14 μm and perform Fos immunohistochemistry. Assess atypicality index (Robertson et al., 1994) using the following formula: Atypical Index=(NAcD−NAcV)−(DL-StrD−DL-StrV) where the average number of Fos-li neurons in NAc=nucleus accumbens, D=drug, V=vehicle, DL-Str=dorsolateral striatum. Analyze data using a one-way ANOVA followed by Newman-Keul's post hoc test (Graph Pad Prism 4.03). Set the level of significance at P<0.05.

male Sprague-Dawley rats = assay: Microdialysis of monoamines and metabolites in prefrontal cortex; assay type: in vivo; conditions: rat prefrontal cortex microdialysate; doses as low as 1 mg/kg, p.o.
Procedure: Methods: Implant male Sprague-Dawley rats (260-300 g, Taconic Farms, Germantown, N.Y.) with a cannula (BAS, West Lafayette, Ind.) in the prefrontal cortex (PFC) 5-7 days before the experiment. Insert a concentric type probe with a 4 mm membrane tip extending below the cannula through the cannula about 16 hours before the experiment began and collect the microdialysate from prefrontal cortex and analyze for monoamines and their metabolites. Calculate all microdialysis data as percent change from dialysate basal concentrations with 100% defined as the average of the final three drug pre-injection values and each group having 5-6 rats. Analyze data with ANOVA and follow by a post-hoc Bonferroni test.

[2] = tested on: alcohol-preferring (P) rats; assay: Progressive ratio responding maintained by ethanol; assay type: in vivo, rat; conditions: female P rats, progressive ratio schedule
Source text: Assess the ability of Example 2 to reduce the motivational drive controlling ethanol intake.
Methods: Study female alcohol-preferring (P) rats under a progressive ratio schedule in which responding produces 15% ethanol (v/v). Under the progressive ratio schedule, the response requirement for ethanol delivery increases from 1 to 2 and then increments by 2 after 3 ethanol presentations.

[3] = tested on: diet-induced obese (DIO) male Long-Evans rats; assay: Feeding model in diet-induced obese (DIO) rats, 14 days; assay type: in vivo, rat
Source text: Methods: Administer Example 2 to diet-induced obese (DIO) male Long-Evans rats. Establish DIO by ad lib feeding from weanling of a diet consisting of 40% fat, 39% carbohydrate and 21% protein caloric content for at least 12 weeks. Define compound potency by T17 (the dose required to produce a difference from the vehicle group of 17 grams). This represents a minimally biologically relevant reduction of 3-4% of body weight compared to vehicle treatment after 2 weeks.

hCB1 [4] = target: T1, hCB1; assay: GTP-γ-35S binding, agonist mode, human CB1 (Sf9 membranes); assay type: biochemical; parameters: purchased Applied Cell Sciences, Gaithersburg, Md; PerkinElmer Life Sciences, Boston, Mass; host or cells: Sf9 insect cells (recombinant expression), membranes

T1 sequence (P21554 whole entry): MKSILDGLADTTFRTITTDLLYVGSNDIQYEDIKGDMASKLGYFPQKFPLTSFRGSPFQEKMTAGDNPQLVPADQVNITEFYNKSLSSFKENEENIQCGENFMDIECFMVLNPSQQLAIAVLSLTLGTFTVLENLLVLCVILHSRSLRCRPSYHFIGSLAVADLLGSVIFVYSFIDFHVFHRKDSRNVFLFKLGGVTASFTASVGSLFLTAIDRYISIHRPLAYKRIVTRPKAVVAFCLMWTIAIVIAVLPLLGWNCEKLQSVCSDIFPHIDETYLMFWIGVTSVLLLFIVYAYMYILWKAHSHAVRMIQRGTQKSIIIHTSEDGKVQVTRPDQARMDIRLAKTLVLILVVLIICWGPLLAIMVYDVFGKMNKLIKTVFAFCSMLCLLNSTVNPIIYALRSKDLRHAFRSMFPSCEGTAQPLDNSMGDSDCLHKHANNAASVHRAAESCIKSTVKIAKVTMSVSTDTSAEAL

For CC(C)(N[C@@H]1C[C@H](c2cccc(OC(F)(F)F)c2)N(c2ccc(C(F)(F)F)cc2)C1=O)c1ccc(C(F)(F)F)nc1.Cc1ccc(S(=O)(=O)O)cc1 [Example 2, (3R,5R)-3-[1-methyl-1-(6-trifluoromethyl-pyridin-3-yl)-ethylamino]-1-(4-trifluoromethyl-phenyl)-5-(3-trifluoromethoxy-phenyl)-pyrrolidin-2-one, 4-methylbenzenesulfonate (1:1)], the Kb (hCB1 [1]) was 0.71 ± 0.26 nM, the “Inverse Agonist Potency (Kb, nM)” value (human CB2 receptor) was “No measurable activity” and the “effect on clozapine-induced Fos reactivity” value (Male Sprague Dawley rats; 1 and 10 mg/kg p.o. given with clozapine 8 mg/kg s.c.) was “enhancing the effects of clozapine alone”. For the same molecule, the “cortical and subcortical Fos reactivity, compound alone” value (Male Sprague Dawley rats; Example 2 1 or 10 mg/kg p.o.) was “tend to or significantly enhance cortical and subcortical Fos reactivity”, the “atypicality (ventral vs. dorsal striatal Fos impact)” value (Male Sprague Dawley rats; Example 2 added to clozapine) was “a neural signature of greater atypicality” and the “cortical monoamine and metabolite levels” value (male Sprague-Dawley rats) was “Increase rat cortical monoamine and metabolite levels”. The “ethanol-seeking behavior and ethanol consumed” value ([2]; 15% ethanol, dose-dependently) was “Reduce ethanol-seeking behavior and the consumption of ethanol consumed”, the reduction of breakpoint ([2]; F(4,20)=4.52, p=0.009) was “in a dose-dependent manner” and the “fat free mass (QNMR)” value [3] was “minimal changes in fat free mass at one of the highest doses”. The cumulative body weight ([3]; 14-day oral treatment) was “reduction of cumulative body weight”, the “T17 (dose producing a 17 gram body weight difference from vehicle)” value ([3]; 14-day oral treatment, estimated) was 0.13 mg/kg and the “efficacy dose (T17) for change in body mass from control” value ([3]; daily oral, 14 days, as restated) was 0.13 mg/kg/day. For the same molecule, the “fat mass (QNMR)” value ([3]; doses 0.1-10 mg/kg) was “significant reductions in fat mass”, the cumulative food intake ([3]; once daily orally, 14 days) was “Decrease cumulative food intake” and the “Agonist Efficacy %” value (hCB1 [4]; normalised to full agonist methanandamide) was −47.9 ± 4.7%. The EC50 (hCB1 [4]; read-out: Agonist Potency EC50) was 0.58 ± 0.05 nM.

Reference: patent US7998985B2, “1,5-diphenyl-3-pyridinylamino-1,5-dihydropyrrolidin-2-one as CB1 receptor modulator” (Eli Lilly and Company, priority 2006, dated 2011)
